The test system of this assay is proseodymium nitrate liver damage. The note with it: serum, 72 hours after 14 mg/kg praseodymnitrate i.v.; SMG1 140.5 mg/kg i.v. three days, MG1 40.5 mg/kg.

Method: The liver-protectiveeffect of the SMG1 was tested on white rats, in that experimentally produced liver damage was antagonized by SMG1 treatment. The rats were injected with the SMG1- or MG1-dosages in 5 ml 0.9% NaCl solution, to which 4% of PVP (M.W. about 10,000) was added per kg of body weight. A dosage of 140.5 mg/kg SMG1 corresponds to 100 mg Silymarin and 40.5 mg 1-methylamino-glucose. When the test animals received 140.5 mg/kg SMG1, the control animals were treated with the equivalent dosage of 1-methylamino glucose, i.e. 40.5 mg/kg.
In another series of tests, antagonization of proseodymium nitrate liver damage by SMG1, measured by the reaction of the serum enzyme glutamate-oxalacetate-transaminase (GOT), glutamate-pyruvate-transaminase (GPT), sorbital-dehydrogenase (SDH) and alkaline phosphatases (AP), was employed as a measure of efficacy of the instant materials. […] The test animals, male Wistar rats weighing approximately 200 g, were treated for three days with 140.5 mg/kg SMG1 i.v. On the first testing day, all rats were damaged i.v. with 14 mg/kg praseodymnitrate one hour after the SMG1- or MG1- injection.

For the substance “1-methylamino glucose [1-methylamino-glucose]”, the “AP (alkaline phosphatase)” value is 168.0 mU/ml, the GOT came out at 360.6 mU/ml, the GPT is recorded as 118.4 mU/ml and the SDH worked out at 32.0 mU/ml.
